# Publication PMC8568133, “Evaluation of bisphenylthiazoles as a promising class for combating multidrug-resistant fungal infections” (PLoS ONE, 2021)
# Where two headings read alike, the source gives them in different places.
# Experiments:
# Candida auris = test: Checkerboard assay of compound 17 with standard antifungals; assay type: cell-based; settings: for FICI (fractional inhibitory concentration index) / Interpretation of interaction: antifungal combined with compound 17; for MIC Combined, Antifungal: antifungal in combination with compound 17; for MIC: Candidozyma auris, checkerboard, agent alone
# Procedure: To evaluate the interactions between bisphenylthiazoles and the standard antifungal agents (fluconazole, amphotericin B, 5-fluorocytosine and caspofungin) against 2 C. auris clinical isolates, a standard checkerboard assay was utilized as described in previous studies. The fractional inhibitory concentration index (FICI) was calculated for each interaction. Interactions where the FICI was ≤0.5 were categorized as synergistic (SYN). FICI values of >0.5–1.25 were categorized as additive (ADD). FICI values of >1.25–4 were categorized as indifferent, and FICI values of > 4 were categorized as antagonistic. The experiment was repeated three independent times.
# Candida albicans = test: Antifungal broth microdilution MIC (50% growth inhibition) and MFC; assay type: cell-based
# Procedure: (§1) Serial dilutions (from 128 μg/mL to 0.06 μg/mL) of the tested compounds and control drugs (fluconazole, itraconazole and amphotericin) (in triplicates), were screened against clinical isolates of Candida albicans, Candida auris, Candida glabrata, Candida parapsilosis, Candida tropicalis, Candida krusei, Cryptococcus neoformans, Cryptococcus gattii and Aspergillus fumigatus species using the broth microdilution method according to the Clinical and Laboratory Standards Institute guidelines. MICs were determined as the lowest concentration of the compounds that inhibited the fungal growth by 50% after incubation at 35 °C for 24 h (for Candida and Aspergillus), or 48 h (for Cryptococcus). The minimum fungicidal concentration (MFC) of these compounds was tested by plating 4 μL from wells with no growth onto YPD agar plates. The plates were incubated at 37 °C for 24 hours before recording the MFC, which was categorized as the lowest concentration that reduced fungal growth by 99.9% [45]. The experiment was repeated three independent times.
# Candida glabrata = test: as above; assay type: cell-based; settings: Nakaseomyces glabratus
# Procedure: as §1
# Candida krusei = test: as above; assay type: cell-based; settings: Pichia kudriavzevii, read-out: MIC
# Procedure: as §1
# Candida tropicalis = test: as above; assay type: cell-based; settings: Candida tropicalis, ATCC1369
# Procedure: as §1
# Candida parapsilosis = test: Antifungal broth microdilution MIC (50% growth inhibition); assay type: cell-based; settings: Lodderomyces parapsilosis, read-out: MIC
# Procedure: as §1
# MRSA USA300 = test: Broth microdilution MIC, initial antibacterial screening; assay type: cell-based, S. aureus
# Procedure: (§2) The minimum inhibitory concentrations (MICs) of the tested compounds and control drugs against clinically-relevant bacterial strains were determined using the broth microdilution method, according to guidelines outlined by the Clinical and Laboratory Standards Institute (CLSI), or as described previously.
# (§3) Initial screening of the bisphenylthiazoles against Gram-positive and Gram-negative bacteria. Bacterial strains, (except C. difficile that was grown anaerobically on brain heart infusion supplemented agar at 37° C for 48 hours), were grown aerobically overnight on tryptone soy agar plates at 37° C. Afterwards, a bacterial solution equivalent to 0.5 McFarland standard was prepared and diluted in cation-adjusted Mueller-Hinton broth (CAMHB) (for S. aureus, and E. coli) to achieve a bacterial concentration of about 5 × 10^5 CFU/mL. C. difficile was diluted in brain heart infusion supplemented broth, supplemented with yeast extract, hemin and vitamin K to achieve a bacterial concentration of about 5 × 10^5 CFU/mL. Compounds and control drugs were added in the first row of the 96 -well plates, and serially diluted with the corresponding media containing bacteria. Plates were then, incubated aerobi cally at 37° C for 18-20 hours (for S. aureus and E. coli). C. difficile was incubated anaerobically at 37° C for 48 hours. […]
# (§4) the visual growth of bacteria.
# [1] = test system: C. difficile ATCC BAA1870; test: Broth microdilution MIC, initial antibacterial screening (anaerobic); assay type: cell-based, Clostridioides difficile
# Procedure: as §2, §3, §4
# [2] = test system: E. coli JW55031 (tolC-mutant); test: microbe, parasite or virus in culture; assay type: cell-based, Escherichia coli
# Procedure: as §2, §3, §4
# [3] = test system: E. coli BW25113 (wild-type); test: Broth microdilution MIC, initial antibacterial screening; assay type: cell-based, Escherichia coli
# Procedure: as §2, §3, §4
# Aspergillus fumigatus = test: Antifungal broth microdilution MIC (50% growth inhibition); assay type: cell-based; settings: Aspergillus fumigatus, read-out: MIC
# Procedure: as §1
# [4] = Candida auris 381 (azole-sensitive)
# [5] = Candida auris 385 (azole-resistant)
# [6] = Staphylococcus aureus, MRSA USA300, read-out: MIC
# [7] = Clostridioides difficile, ATCCBAA1870, read-out: MIC
# [8] = Escherichia coli, read-out: MIC
# [9] = Candida albicans, C. albicans SS5314 (wild-type), read-out: MIC
Structure (SMILES),MIC (MRSA USA300; MRSA USA300) [µg/mL],MIC [1] [µg/mL],MIC ([2]; E. coli JW55031 (tolC-mutant)) [µg/mL],MIC [3] [µg/mL],MIC (Candida albicans; C. albicans SS5314 (wild-type)) [µg/mL],MIC (MRSA USA300; [6]) [µg/mL],"MIC [1, 7] [µg/mL]",MIC ([2]; Escherichia coli) [µg/mL],"MIC [3, 8] [µg/mL]",further results
Nc1nc(=O)[nH]cc1F [5-Fluorocytosine],–,–,–,–,–,–,–,–,–,"FICI (fractional inhibitory concentration index) (Candida auris; [4]): 1.250; Interpretation of interaction (Candida auris; [4]): ADD (FICI values of >0.5–1.25 were categorized as additive (ADD)); MIC Combined, Antifungal (Candida auris; [4]): 0.125 µg/mL; FICI (fractional inhibitory concentration index) (Candida auris; [5]): 1.125; Interpretation of interaction (Candida auris; [5]): ADD (FICI values of >0.5–1.25 were categorized as additive (ADD)); MIC Combined, Antifungal (Candida auris; [5]): 0.25 µg/mL; MIC (Candida auris; [4]): 0.125 µg/mL; MIC (Candida auris; [5]): 0.25 µg/mL"
CC[C@H](C)C[C@H](C)CCCCCCCCC(=O)N[C@H]1C[C@@H](O)[C@@H](NCCN)NC(=O)[C@@H]2[C@@H](O)CCN2C(=O)[C@H]([C@H](O)CCN)NC(=O)[C@H]([C@H](O)[C@@H](O)c2ccc(O)cc2)NC(=O)[C@@H]2C[C@@H](O)CN2C(=O)[C@H]([C@@H](C)O)NC1=O [Caspofungin],–,–,–,–,–,–,–,–,–,"MIC (Candida albicans; Candida albicans, ATCC10231): 0.125 µg/mL; MIC (Candida albicans; Candida albicans, C. albicans NR-29448 (fluconazole-resistant), read-out: MIC): 0.25 µg/mL; MIC (Candida glabrata): 0.125 µg/mL; MIC (Candida glabrata; ATCC66032, C. glabrata ATCC 66032, read-out: MIC): 0.25 µg/mL; MIC (Candida krusei; ATCC34135, C. krusei ATCC 34135): 0.5 µg/mL; MIC (Candida krusei; C. krusei CAB 396420): 0.5 µg/mL; MIC (Candida tropicalis): 0.125 µg/mL; MIC (Candida parapsilosis; ATCC22019, C. parapsilosis ATCC 22019): 0.5 µg/mL; MIC (Candida parapsilosis; C. parapsilosis CAB 502638): 0.5 µg/mL; FICI (fractional inhibitory concentration index) (Candida auris; [4]): 1.250; Interpretation of interaction (Candida auris; [4]): ADD (FICI values of >0.5–1.25 were categorized as additive (ADD)); MIC Combined, Antifungal (Candida auris; [4]): 0.5 µg/mL; FICI (fractional inhibitory concentration index) (Candida auris; [5]): 1.125; Interpretation of interaction (Candida auris; [5]): ADD (FICI values of >0.5–1.25 were categorized as additive (ADD)); MIC Combined, Antifungal (Candida auris; [5]): 0.063 µg/mL; MIC (Candida auris; [4]): 0.5 µg/mL; MIC (Candida auris; [5]): 0.063 µg/mL"
"Cc1nc(-c2ccc(-c3ccccc3)cc2)sc1-c1nnc(NCCN(C)C)o1 [Compound 8, N-{5-[2-((1,1’-Biphenyl)-4-yl)-4-methylthiazol-5-yl]-1,3,4-oxadiazol-2-yl}-N,N-dimethylethane-1,2-diamine]",32,16,16,64,16,–,–,–,–,–
"Cc1nc(-c2ccc(-c3ccccc3)cc2)sc1-c1nnc(NCC(=N)N)o1 [Compound 9, 2-{[5-(2-((1,1’-biphenyl)-4-yl)-4-methylthiazol-5-yl)-1,3,4-oxadiazol-2-yl]amino} acetimidamide]",>64,>64,>64,>64,>64,–,–,–,–,–
"Cc1nc(-c2ccc(-c3ccccc3)cc2)sc1-c1nnc(NC2CCNC2)o1 (stereo not shown) [Compound 10, 5-{2-[(1,1’-Biphenyl)-4-yl]-4-methylthiazol-5-yl}-N-(pyrrolidin-3-yl)-1,3,4-oxadiazol-2-amine]",–,–,–,–,–,> 64,32,> 64,> 64,MIC (Candida albicans; [9]): 8 µg/mL; melting point: 116 to 117 °C
"Cc1nc(-c2ccc(-c3ccccc3)cc2)sc1-c1nnc(N2CC[C@@H](N(C)C)C2)o1 [Compound 11, (R)-1-{5-[2-((1,1’-biphenyl)-4-yl)-4-methylthiazol-5-yl]-1,3,4-oxadiazol-2-yl}-N,N-dimethylpyrrolidin-3-amine]",–,–,–,–,–,> 64,> 64,> 64,> 64,MIC (Candida albicans; [9]): > 64 µg/mL; melting point: 165 to 167 °C
"Cc1nc(-c2ccc(-c3ccccc3)cc2)sc1-c1nnc(N2CC[C@H](N(C)C)C2)o1 [Compound 12, (S)-1-{5-[2-((1,1’-biphenyl)-4-yl)-4-methylthiazol-5-yl]-1,3,4-oxadiazol-2-yl}-N,N-dimethylpyrrolidin-3-amine]",–,–,–,–,–,16,32,> 64,> 64,MIC (Candida albicans; [9]): 16 µg/mL; melting point: 185 to 187 °C
"Cc1nc(-c2ccc(-c3ccccc3)cc2)sc1-c1nnc(N2CCC[C@H]2C(N)=O)o1 [Compound 13, (S)-1-{5-[2-((1,1’-biphenyl)-4-yl)-4-methylthiazol-5-yl]-1,3,4-oxadiazol-2-yl}pyro-lidine-2-carboxamide]",>64,>64,>64,>64,>64,–,–,–,–,–
"Cc1nc(-c2ccc(-c3ccccc3)cc2)sc1-c1nnc(N2CCC[C@@H]2C(N)=O)o1 [Compound 14, (R)-1-{5-[2-((1,1’-biphenyl)-4-yl)-4-methylthiazol-5-yl]-1,3,4-oxadiazol-2-yl}pyro-lidine-2-carboxamide]",>64,64,>64,>64,>64,–,–,–,–,–
"Cc1nc(-c2ccc(-c3ccccc3)cc2)sc1-c1nnc(N2CCCCC2CN)o1 (stereo not shown) [Compound 15, {1-[5-(2-((1,1’-Biphenyl)-4-yl)-4-methylthiazol-5-yl)-1,3,4-oxadiazol-2-yl]piperidin-2-yl}methanamine]",–,–,–,–,–,16,16,16,> 64,MIC (Candida albicans; [9]): 16 µg/mL; melting point: 225 to 227 °C
"Cc1nc(-c2ccc(-c3ccccc3)cc2)sc1-c1nnc(N2CCC[C@H]2CO)o1 [Compound 20, (S)-{1-[5-(2-((1,1’-Biphenyl)-4-yl)-4-methylthiazol-5-yl)-1,3,4-oxadiazol-2-yl]pyro-lidin-2-yl}methanol]",>64,64,>64,>64,>64,–,–,–,–,–
"Cc1nc(-c2ccc(-c3ccccc3)cc2)sc1-c1nnc(N2CCC[C@@H]2CO)o1 [Compound 21, (R)-{1-[5-(2-((1,1’-Biphenyl)-4-yl)-4-methylthiazol-5-yl)-1,3,4-oxadiazol-2-yl]pyro-lidin-2-yl}tmethanol]",>64,>64,>64,>64,>64,–,–,–,–,–
"CNC(C)C1CCC(N)C(OC2C(N)CC(N)C(OC3OCC(C)(O)C(NC)C3O)C2O)O1 (stereo not shown) [Gentamicin, reference compound]",–,–,–,–,–,–,–,≤ 0.5,≤ 0.5,–
"CCC(C)n1ncn(-c2ccc(N3CCN(c4ccc(OCC5COC(Cn6cncn6)(c6ccc(Cl)cc6Cl)O5)cc4)CC3)cc2)c1=O (stereo not shown) [Itraconazole, reference compound]",–,–,–,–,–,–,–,–,–,MIC (Aspergillus fumigatus; A. fumigatus NR 35303): 1 µg/mL; MIC (Aspergillus fumigatus; A. fumigatus NR 35304): 1 µg/mL
"CC(=O)NC[C@H]1CN(c2ccc(N3CCOCC3)c(F)c2)C(=O)O1 [Linezolid, reference compound]",–,–,–,–,–,1,1,8,> 64,–
"CN[C@H](CC(C)C)C(=O)N[C@H]1C(=O)N[C@@H](CC(N)=O)C(=O)N[C@H]2C(=O)N[C@H]3C(=O)N[C@H](C(=O)N[C@H](C(=O)O)c4cc(O)cc(O)c4-c4cc3ccc4O)[C@H](O)c3ccc(c(Cl)c3)Oc3cc2cc(c3O[C@@H]2O[C@H](CO)[C@@H](O)[C@H](O)[C@H]2O[C@H]2C[C@](C)(N)[C@H](O)[C@H](C)O2)Oc2ccc(cc2Cl)[C@H]1O [Vancomycin, reference compound]",–,–,–,–,–,–,–,–,–,MIC (MRSA USA300; Staphylococcus aureus): 1 µg/mL
